Patent US20150184144A1, “Liquid Enzyme Composition and Method for Enzyme Recovery” (Novozymes A/S, priority 2012, published 2015)

System: Lactobacillus (L. buchneri and L. para paracasei)
Experiment: Challenge screening of liquid enzyme formulations inoculated with Lactobacillus, viable cells (CFU)
Type: cell-based
Settings: for CFU/ml After 1 week / CFU/ml After 2 weeks: 20-25° C.
Experimental: The antimicrobial effect may be determined by analyzing viable cells (CFU) of the liquid formulation after inoculating with Lactobacillus and incubating for 1-2 weeks at 20-25° C. and comparing with a similar liquid composition without the fatty acid or salt.
Challenge screening was performed by inoculating with 10^5-10^6 CFU/ml of Lactobacillus (L. buchneri and L. para paracasei), incubating for two weeks at 20-25° C., and analyzing viable cells (CFU) before and after inoculation and after 1 and 2 weeks.
The results are shown as CFU/ml (detection limit 100): […]

[1] = Example 5: 0.3% w/w inhibitor in glucoamylase formulation, pH 4.7
[2] = Example 5: glucoamylase (mixture of two variants) formulation, 48% w/w solids, pH 4.7, 0.3% w/w Na-octanoate or sodium benzoate instead, with or without 0.3% Na acetate trihydrate
[3] = Example 5: glucoamylase formulation, pH 4.7, 0.3% w/w Na-octanoate or sodium benzoate instead, with or without 0.3% Na acetate trihydrate
[4] = Example 1: Talaromyces glucoamylase formulation, 0.5% w/w Na-hexanoate, pH 5.0, detection limit 100

## CC(=O)[O-].O.O.O.[Na+] [acetate, Na acetate trihydrate, reference compound]
[1]
  antimicrobial effect against Lactobacillus (in words): not effective

## O=C([O-])c1ccccc1.[Na+] [Benzoate, sodium benzoate, reference compound]
[1]
  antimicrobial effect against Lactobacillus (in words): not effective
[2]
  CFU/ml Before inoculation: ≦100 CFU/ml
[3]
  CFU/ml After inoculation: 170000 CFU/ml
  CFU/ml After 1 week: 150000 CFU/ml
  CFU/ml After 2 weeks: 120000 CFU/ml

## CCCCCCCC(=O)[O-].[Na+] [Octanoate, Na-Caprylate (Na-octanoate)]
Example 4: 0.5% w/w Na-octanoate in glucoamylase formulation, pH 5.0, compared with formate+sorbate+propionate
  antimicrobial effect against Lactobacillus (in words): strong antimicrobial (germicidal) effect
[1]
  antimicrobial effect against Lactobacillus (in words): strong antimicrobial (germicidal) effect
[2]
  CFU/ml Before inoculation: ≦100 CFU/ml
[3]
  CFU/ml After inoculation: 170000 CFU/ml
  CFU/ml After 1 week: ≦100 CFU/ml
  CFU/ml After 2 weeks: ≦100 CFU/ml

## CCCCCC(=O)[O-].[Na+] [Na-hexanoate]
Example 1: 0.5% w/w Na-hexanoate in glucoamylase formulation, pH 5.0
  antimicrobial effect against Lactobacillus (in words): antimicrobial (germicidal) effect
[4]
  CFU/ml After 1 week: ≦100 CFU/ml
  CFU/ml After 2 weeks: ≦100 CFU/ml
Example 1: Talaromyces glucoamylase formulation, 0.5% w/w Na-hexanoate, pH 5.0, inoculated with 10^5-10^6 CFU/ml
  CFU/ml After inoculation: 180000 CFU/ml
Example 1: Talaromyces glucoamylase formulation, 43% w/w solids (glucose), 0.5% w/w Na-hexanoate, pH 5.0, detection limit 100
  CFU/ml Before inoculation: ≦100 CFU/ml
Example 2: 0.5% w/w Na-hexanoate in xylanase and cellulase formulation, pH 4.6
  antimicrobial effect against Lactobacillus (in words): antimicrobial (germicidal) effect
Example 3: 0.5% w/w Na-hexanoate in cellulase and xylanase formulation, pH 4.55
  antimicrobial effect against Lactobacillus (in words): antimicrobial (germicidal) effect
